The values below come from patent publication US9783531B2, “Thiazole-substituted aminoheteroaryls as spleen tyrosine kinase inhibitors” (Merck Sharp & Dohme Corp., priority 2013, dated 2017).

pIC50: −log10 of the molar value.

For data set [1], the target named is T1, recombinant human GST-SYK (Homo sapiens, UniProt P43405).
T1 construct: purchased Carna Biosciences 08-176
Put plainly: Homogeneous Time-Resolved Fluorescence (HTRF) assay for the recombinant human Syk enzyme. The class given is biochemical. The settings on record: recombinant human GST-SYK 5 pM, ATP 25 μM, read-out: rhSyk. How it is done:
Homogeneous Time-Resolved Fluorescence (HTRF) Assay for the Recombinant Human Syk Enzyme
A recombinant GST-hSYK fusion protein was used to measure potency of compounds to inhibit human Syk activity. The recombinant human GST-SYK (Carna Biosciences #08-176) (5 pM final concentration) was incubated with various concentrations of the inhibitor diluted in DMSO (0.1% final concentration) for 10 minutes at room temperature in 15 mM Tris-HCl (pH 7.5), 0.01% tween 20, 2 mM DTT in 384 well plate format. To initiate the reaction the biotinylated substrate peptide (250 nM final concentration) that contains the phosphorylation site for Syk was added with magnesium (5 mM final concentration) and ATP (25 μM final concentration). Final volume of the reaction was 10 μL. Phosphorylation of the peptide was allowed to proceed for 45′ at room temperature. To quench the reaction and detect the phosphorylated product, 2 nM of a Europium-anti-phosphotyrosine antibody (Perkin Elmer #AD0161) and 70 nM SA-APC (Perkin-Elmer #CR130-100) were added together in 15 mM Tris pH 7.5, 40 mM EDTA, 0.01% tween 20. Final volume of the quenching solution was 10 μL.
The resulting HTRF signal was measured after 30 minutes on an EnVision (Perkin-Elmer) reader using a time-resolved fluorescence protocol. Table A below lists activities as IC50 values (nM) for representative compounds of the invention.
(In TR-FRET formats the signal depends on donor and acceptor labels being close together.)

The conditions of data set [2]: dosed intranasally, phase I/II study, allergic rhinitis; cited from earlier work.
The conditions of data set [3]: phase II clinical trial, allergic rhinitis; cited from earlier work.

As to `Cc1cc(Nc2cc(C3CCC3)[nH]n2)cc(-c2cnc(C3(O)CCC3)s2)c1` [Example 2.7, 1-(5-{3-[(5-cyclobutyl-1H-pyrazol-3-yl)amino]-5-methylphenyl}-1,3-thiazol-2-yl)cyclobutanol], the pIC50 in data set [1] was 6.56.
On the same count and under the same terms, to `Cc1cc(Nc2ncnn2C2CCC2)cc(-c2cnc([C@]3(O)CC[C@@H](C(=O)O)CC3)s2)c1` [Example 2.21, cis-4-(5-{3-[(1-cyclobutyl-1H-1,2,4-triazol-5-yl)amino]-5-methylphenyl}-1,3-thiazol-2-yl)-4-hydroxycyclohexane-carboxylic acid] belongs 5.48; to `Cc1cc(Nc2ncn(Cc3ccccc3)n2)cc(-c2cnc(C3(O)CCC3)s2)c1` [Example 2.19, 1-(5-{3-[(1-benzyl-1H-1,2,4-triazol-3-yl)amino]-5-methylphenyl}-1,3-thiazol-2-yl)cyclobutanol], 6.49; to `Cc1cc(Nc2ncn(C)n2)cc(-c2cnc(C3(O)CCC3)s2)c1` [Example 2.10, 1-(5-{3-methyl-5-[(1-methyl-1H-1,2,4-triazol-3-yl)amino]phenyl}-1,3-thiazol-2-yl)cyclobutanol], 6.73.
The same measure, in the same setting: to `CCn1cnc(Nc2cc(C)cc(-c3cnc([C@]4(O)CC[C@@H](C(N)=O)CC4)s3)c2)n1` [Example 2.3, 4-(5-(3-((1-Ethyl-1H-1,2,4-triazol-3-yl)amino)-5-methylphenyl)thiazol-2-yl)-4-hydroxycyclohexanecarboxamide] belongs 7.30.
The same measure, in the same setting: the figure for `CCCn1cnc(Nc2cc(C)cc(-c3cnc(C4(O)CCC4)s3)c2)n1` [Example 2.13, 1-(5-{3-methyl-5-[(1-propyl-1H-1,2,4-triazol-3-yl)amino]phenyl}-1,3-thiazol-2-yl)cyclobutanol] is 7.01; for `Cc1cc(Nc2ncn(C3CCC3)n2)cc(-c2cnc(C3(O)CCC3)s2)c1` [Example 2.17, 1-(5-{3-[(1-cyclobutyl-1H-1,2,4-triazol-3-yl)amino]-5-methylphenyl}-1,3-thiazol-2-yl)cyclobutanol] it is 8.13.
For `Cc1cc(Nc2ncn(C(C)C)n2)cc(-c2cnc([C@]3(O)CC[C@@H](C(=O)O)CC3)s2)c1` [Example 2.22, cis-4-hydroxy-4-[5-(3-methyl-5-{[1-(1-methylethyl)-1H-1,2,4-triazol-3-yl]amino}phenyl)-1,3-thiazol-2-yl]cyclohexanecarboxylic acid], the pIC50 in data set [1] is 8.00.
For `Oc1cccc(Nc2ncc(F)c(Nc3cccc(O)c3)n2)c1` [Example R112], in data set [2], the “PGD2 (immune mediator)” value is “statistically significant decrease in PGD2” and the clinical safety result is listed as “safe across a range of indicators”. In data set [3], the efficacy versus placebo result is recorded as “lack of efficacy versus placebo”.
For `Cc1cc(Nc2ncn(C3CCC3)n2)cc(-c2cnc([C@]3(O)CC[C@@H](C(=O)O)C(C)(C)C3)s2)c1` (single isomer, unassigned) [Example 2.24, (1R,4S or 1S,4R)-4-(5-{3-[(1-cyclobutyl-1H-1,2,4-triazol-3-yl)amino]-5-methylphenyl}-1,3-thiazol-2-yl)-4-hydroxy-2,2-dimethylcyclohexanecarboxylic acid], the pIC50 in data set [1] was 9.41.
For the compound `CCn1cnc(Nc2cc(C)cc(-c3cnc(C4(O)CCC4)s3)c2)n1` [Example 2.12, 1-(5-{3-[(1-ethyl-1H-1,2,4-triazol-3-yl)amino]-5-methylphenyl}-1,3-thiazol-2-yl)cyclobutanol], in data set [1], the pIC50 is 7.31.
On to `Cc1cc(Nc2ncn(C(C)C)n2)cc(-c2cnc([C@]3(O)CC[C@@H](C(=O)OC(C)(C)C)CC3)s2)c1` [Example 2.20, tert-butyl cis-4-hydroxy-4-[5-(3-methyl-5-{[1-(1-methylethyl)-1H-1,2,4-triazol-3-yl]amino}phenyl)-1,3-thiazol-2-yl]cyclohexanecarboxylate], for which the pIC50 in data set [1] is 6.00.
As to `Cc1cc(Nc2n[nH]c(C)n2)cc(-c2cnc(C3(O)CCC3)s2)c1` [Example 2.9, 1-(5-{3-methyl-5-[(5-methyl-1H-1,2,4-triazol-3-yl)amino]phenyl}-1,3-thiazol-2-yl)cyclobutanol], in data set [1], the pIC50 was 5.89.
Same read-out and setting: the figure for `Cc1cc(Nc2ncn(C)n2)cc(-c2cnc(C3(O)CCC(C(=O)OC(C)(C)C)CC3)s2)c1` (centres unmarked) [Example 1.1, tert-butyl 4-hydroxy-4-(5-(3-methyl-5-((1-methyl-1H-1,2,4-triazol-3-yl)amino)phenyl)thiazol-2-yl)cyclohexanecarboxylate] is 5.94; for `Cc1cc(Nc2cc[nH]n2)cc(-c2cnc(C3(O)CCC3)s2)c1` [Example 2.4, 1-{5-[3-methyl-5-(1H-pyrazol-3-ylamino)phenyl]-1,3-thiazol-2-yl}cyclobutanol] it is 5.95; for `Cc1cc(Nc2ncn(C(C)C)n2)cc(-c2cnc([C@]3(O)CC[C@@H](C(N)=O)CC3)s2)c1` [Example 2.23, cis-4-hydroxy-4-[5-(3-methyl-5-{[1-(1-methylethyl)-1H-1,2,4-triazol-3-yl]amino}phenyl)-1,3-thiazol-2-yl]cyclohexanecarboxamide] it is 7.43.
As for `Cc1cc(Nc2cc(C)[nH]n2)cc(-c2cnc(C3(O)CCC3)s2)c1` [Example 2.5, 1-(5-{3-methyl-5-[(5-methyl-1H-pyrazol-3-yl)amino]phenyl}-1,3-thiazol-2-yl)cyclobutanol], the pIC50 in data set [1] was 6.03.
As for `Cc1cc(Nc2ncn(C3CCCCC3)n2)cc(-c2cnc(C3(O)CCC3)s2)c1` [Example 2.16, 1-(5-{3-[(1-cyclohexyl-1H-1,2,4-triazol-3-yl)amino]-5-methylphenyl}-1,3-thiazol-2-yl)cyclobutanol], the pIC50 in data set [1] was 6.94.
Same read-out and setting: the figure for `CCn1cnc(Nc2cc(C)cc(-c3cnc(C4(O)CCC(C(=O)O)CC4)s3)c2)n1` (centres unmarked) [Example 2.2, 4-(5-(3-((1-ethyl-1H-1,2,4-triazol-3-yl)amino)-5-methylphenyl)thiazol-2-yl)-4-hydroxycyclohexanecarboxylic acid] is 8.00; for `Cc1cc(Nc2ncn(C(C)C)n2)cc(-c2cnc(C3(O)CCC3)s2)c1` [Example 2.11, 1-[5-(3-methyl-5-{[1-(1-methylethyl)-1H-1,2,4-triazol-3-yl]amino}phenyl)-1,3-thiazol-2-yl]cyclobutanol] it is 7.31; for `Cc1cc(Nc2ncnn2C2CCC2)cc(-c2cnc(C3(O)CCC3)s2)c1` [Example 2.18, 1-(5-{3-[(1-cyclobutyl-1H-1,2,4-triazol-5-yl)amino]-5-methylphenyl}-1,3-thiazol-2-yl)cyclobutanol] it is 5.11.
On the same count and under the same terms, the figure for `CCn1cnc(Nc2cc(C)cc(-c3cnc(C4(O)CCC(C(=O)OC(C)(C)C)CC4)s3)c2)n1` (centres unmarked) [Example 2.1, tert-butyl 4-(5-(3-((1-ethyl-1H-1,2,4-triazol-3-yl)amino)-5-methylphenyl)thiazol-2-yl)-4-hydroxycyclohexanecarboxylate] is 5.95; for `Cc1cc(Nc2cc(C3CC3)[nH]n2)cc(-c2cnc(C3(O)CCC3)s2)c1` [Example 2.6, 1-(5-{3-[(5-cyclopropyl-1H-pyrazol-3-yl)amino]-5-methylphenyl}-1,3-thiazol-2-yl)cyclobutanol] it is 6.74; for `Cc1cc(Nc2ncn(C3CCC3)n2)cc(-c2cnc([C@]3(O)CC[C@@H](C(=O)O)C(C)(C)C3)s2)c1` (single isomer, unassigned) [Example 2.25, (1R,4S or 1S,4R)-4-(5-{3-[(1-cyclobutyl-1H-1,2,4-triazol-3-yl)amino]-5-methylphenyl}-1,3-thiazol-2-yl)-4-hydroxy-2,2-dimethylcyclohexanecarboxylic acid] it is 8.59.
For the compound `Cc1cc(Nc2ncn(C(=O)N(C)C)n2)cc(-c2cnc(C3(O)CCC3)s2)c1` [Example 2.15, 3-({3-[2-(1-hydroxycyclobutyl)-1,3-thiazol-5-yl]-5-methylphenyl}amino)-N,N-dimethyl-1H-1,2,4-triazole-1-carboxamide], the pIC50 in data set [1] was 5.41.
Still for that read-out and setting: the figure for `Cc1cc(Nc2ncn(C)n2)cc(-c2cnc(C3(O)CCC(C(=O)O)CC3)s2)c1` (centres unmarked) [Example 1.2, 4-hydroxy-4-(5-(3-methyl-5-((1-methyl-1H-1,2,4-triazol-3-yl)amino)phenyl)thiazol-2-yl)cyclohexanecarboxylic acid] is 7.25; for `Cc1cc(Nc2ncn(-c3ccccc3)n2)cc(-c2cnc(C3(O)CCC3)s2)c1` [Example 2.14, 1-(5-{3-methyl-5-[(1-phenyl-1H-1,2,4-triazol-3-yl)amino]phenyl}-1,3-thiazol-2-yl)cyclobutanol] it is 6.44.
